Data published in the supplement of paper PMC6045584.
± gives the standard deviation of the averaged measurements.

Experiments:
EVEROLIMUS = compound: CO[C@H]1C[C@@H]2CC[C@@H](C)[C@@](O)(O2)C(=O)C(=O)N2CCCC[C@H]2C(=O)O[C@H]([C@H](C)C[C@@H]2CC[C@@H](OCCO)[C@H](OC)C2)CC(=O)[C@H](C)/C=C(\C)[C@@H](O)[C@@H](OC)C(=O)[C@H](C)C[C@H](C)/C=C/C=C/C=C/1C [EVEROLIMUS]; assay: area under dose-response curve of surviving fraction (unscaled, Aref=0) (surviving fraction x log10(nM)); higher = more resistant; conditions: exposure time: 5 days; dose range 0.5-1000 nM
How it was run: (§1)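 Tumour cell lines in 384-well plates were exposed to eight inhibitor concentrations, from 0.5 to 1000 nM, for five days, and viability was read by CellTiter-Glo luminescence in three screens per line. Signals were normalised to DMSO-only wells, and 3-parameter logistic regression in the drc R package fitted dose-response survival curves to the surviving fractions. Area under the curve is given as the unscaled activity area. That area is taken over log10 dose with Aref = 0.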

MK0752 = compound: O=C(O)CC[C@H]1CC[C@@](c2cc(F)ccc2F)(S(=O)(=O)c2ccc(Cl)cc2)CC1 [MK0752]; assay: as above; conditions: exposure time: 5 days; dose range 0.5-1000 nM
How it was run: as §1

AZD4547 = compound: COc1cc(CCc2cc(NC(=O)c3ccc(N4CC(C)NC(C)C4)cc3)n[nH]2)cc(OC)c1 [AZD4547]; assay: as above; conditions: exposure time: 5 days; dose range 0.5-1000 nM
How it was run: as §1

MK2206 = compound: NC1(c2ccc(-c3nc4ccn5c(=O)[nH]nc5c4cc3-c3ccccc3)cc2)CCC1 [MK2206]; assay: as above; conditions: exposure time: 5 days; dose range 0.5-1000 nM
How it was run: as §1

ETOPOSIDE = compound: COc1cc([C@@H]2c3cc4c(cc3[C@@H](O[C@@H]3O[C@@H]5CO[C@@H](C)O[C@H]5[C@H](O)[C@H]3O)[C@H]3COC(=O)[C@H]23)OCO4)cc(OC)c1O [ETOPOSIDE]; assay: as above; conditions: exposure time: 5 days; dose range 0.5-1000 nM
How it was run: as §1

VINORELBINE = compound: CCC1=C[C@@H]2CN(C1)Cc1c([nH]c3ccccc13)[C@@](C(=O)OC)(c1cc3c(cc1OC)N(C)[C@H]1[C@@](O)(C(=O)OC)[C@H](OC(C)=O)[C@]4(CC)C=CCN5CC[C@]31[C@@H]54)C2 [VINORELBINE]; assay: surviving fraction relative to DMSO-only wells; higher = less growth inhibition; conditions: exposure time: 5 days
How it was run: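 Viability was determined by CellTiter-Glo luminescence, expressed as surviving fraction normalised to the median of DMSO-only wells. The cells were log-phase tumour cell lines seeded at 250–500 per well in 384-well plates and, after 24 hours, exposed continuously for five days to inhibitors at 0.5, 1, 5, 10, 50, 100, 500 and 1000 nM. Three screens per line were run, keeping only lines with replicate Pearson r >0.7 and median Z' >0.3.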

PLX-4720 = compound: CCCS(=O)(=O)Nc1ccc(F)c(C(=O)c2c[nH]c3ncc(Cl)cc23)c1F [PLX-4720]; assay: area under dose-response curve of surviving fraction (unscaled, Aref=0) (surviving fraction x log10(nM)); higher = more resistant; conditions: exposure time: 5 days; dose range 0.5-1000 nM
How it was run: as §1

SUNITINIB = compound: CCN(CC)CCNC(=O)c1c(C)[nH]c(/C=C2\C(=O)Nc3ccc(F)cc32)c1C [SUNITINIB]; assay: as above; conditions: exposure time: 5 days; dose range 0.5-1000 nM
How it was run: as §1

Test System	area under dose-response curve (EVEROLIMUS)	area under dose-response curve (MK0752)	area under dose-response curve (AZD4547)	area under dose-response curve (MK2206)	area under dose-response curve (ETOPOSIDE)	surviving fraction (VINORELBINE; 0.5 nM)	surviving fraction (VINORELBINE; 1 nM)	surviving fraction (VINORELBINE; 5 nM)	surviving fraction (VINORELBINE; 10 nM)	surviving fraction (VINORELBINE; 50 nM)	surviving fraction (VINORELBINE; 100 nM)	surviving fraction (VINORELBINE; 500 nM)	surviving fraction (VINORELBINE; 1000 nM)	area under dose-response curve (PLX-4720)	area under dose-response curve (SUNITINIB)
C33A CERVIX	1.43	3.7	3.03	3.12	2.61	1.02 ± 0.15	1.02 ± 0.1	1.03 ± 0.11	0.78 ± 0.04	0.121 ± 0.0098	0.102 ± 0.028	0.0543 ± 0.026	0.0423 ± 0.0078	–	–
CAL72 BONE	2.27	3.63	1.94	3.66	3.1	1.04 ± 0.036	1.05 ± 0.036	1 ± 0.024	0.9417 ± 0.0083	0.43 ± 0.056	0.34 ± 0.05	0.213 ± 0.018	0.213 ± 0.026	3.44	–
G292 BONE	1.68	3.19	1.58	2.96	2.76	0.962 ± 0.012	1.01 ± 0.045	0.704 ± 0.0075	0.416 ± 0.013	0.221 ± 0.02	0.189 ± 0.0081	0.144 ± 0.013	0.105 ± 0.011	3.19	2.82
HUO3N1 BONE	2.1	–	2.9	2.94	2.97	1.01 ± 0.032	1.02 ± 0.012	1.03 ± 0.039	0.935 ± 0.017	0.308 ± 0.039	0.182 ± 0.025	0.183 ± 0.0055	0.179 ± 0.018	3.12	2.62
LNCAP PROSTATE	1.21	3.22	2.84	2.02	2.68	0.816 ± 0.12	0.843 ± 0.12	0.667 ± 0.038	0.458 ± 0.056	0.06 ± 0.0053	0.054 ± 0.0044	0.058 ± 0.001	0.0507 ± 0.0083	3.17	–
SCC003 HEADNECK	–	–	–	–	–	1.02 ± 0.16	1.08 ± 0.067	0.967 ± 0.13	0.862 ± 0.064	0.271 ± 0.039	0.256 ± 0.02	0.34 ± 0.045	0.311 ± 0.036	2.97	2.83
